Here are results for 19 compounds from ChEMBL document CHEMBL1136873, “Application of combinatorial biocatalysis for a unique ring expansion of dihydroxymethylzearalenone” (Bioorg Med Chem Lett, 2009).

The structures appear in SMILES notation. pIC50: −log10 of the molar value. Activity calls are given as the source filed them. No cut-off for these calls is given here.

The first test concerns the target T1, Tyrosine-protein kinase Lck (Homo sapiens, UniProt P06239). In words: Inhibition of LCK at 10 uM.
Target sequence in this assay (P06239 2-509 limits assumed): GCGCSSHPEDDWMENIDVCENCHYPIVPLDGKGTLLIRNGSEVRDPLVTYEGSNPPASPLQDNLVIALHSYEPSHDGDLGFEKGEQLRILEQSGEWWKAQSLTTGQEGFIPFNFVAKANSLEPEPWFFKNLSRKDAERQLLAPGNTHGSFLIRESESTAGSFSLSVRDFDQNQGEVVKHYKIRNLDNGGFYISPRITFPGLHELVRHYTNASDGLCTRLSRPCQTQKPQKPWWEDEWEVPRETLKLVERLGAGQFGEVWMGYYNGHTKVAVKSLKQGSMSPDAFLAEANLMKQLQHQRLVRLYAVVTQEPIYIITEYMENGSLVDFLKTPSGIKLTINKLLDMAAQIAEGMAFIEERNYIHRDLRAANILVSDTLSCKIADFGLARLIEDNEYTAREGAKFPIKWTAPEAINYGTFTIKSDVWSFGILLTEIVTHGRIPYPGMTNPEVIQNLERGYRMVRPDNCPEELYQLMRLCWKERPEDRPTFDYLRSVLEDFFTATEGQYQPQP
For the compound `COc1cc(O)c2c(c1)/C=C/CC(=O)OCc1cccc(c1)COC(=O)CCC[C@H](C)OC2=O`, the outcome was inactive.
In the case of `COc1cc(O)c2c(c1)/C=C/CC(=O)NCCCOCCCNC(=O)CCC[C@H](C)OC2=O`, the result was inactive.
`COc1cc(O)c2c(c1)/C=C/CC(=O)OCCOCC#CCOCCOC(=O)CCC[C@H](C)OC2=O`: the result was inactive.
As to `COc1cc(O)c2c(c1)/C=C/CC(=O)OCCOC(=O)CCC[C@H](C)OC2=O`, the result was inactive.
Take `COc1cc(O)c2c(c1)/C=C/CC(=O)OC/C=C\COC(=O)CCC[C@H](C)OC2=O`: the outcome was inactive.
On to `COc1cc(O)c2c(c1)/C=C/CC(=O)OCCC1(CCCCC1)CCOC(=O)CCC[C@H](C)OC2=O`, for which the outcome was inactive.
In the case of `COc1cc(O)c2c(c1)/C=C/CC(=O)OCCCCCCOC(=O)CCC[C@H](C)OC2=O`, the result was inactive.
As for `COc1cc(O)c2c(c1)/C=C/CC(=O)OCCCC(c1ccccc1)(C(C)O)CCCOC(=O)CCC[C@H](C)OC2=O` (stereo not given in full), the result was inactive.
`COc1cc(O)c2c(c1)/C=C/CC(=O)NCCCCCCCNC(=O)CCC[C@H](C)OC2=O`: the outcome was inactive.
Turning to `COc1cc(O)c2c(c1)/C=C/CC(=O)NCCCOCCCCOCCCNC(=O)CCC[C@H](C)OC2=O`, the outcome was inactive.
As for `COc1cc(O)c2c(c1)/C=C/CC(=O)NCCCCNC(=O)CCC[C@H](C)OC2=O`, the result was inactive.
With `COc1cc(O)c2c(c1)/C=C/CC(=O)NCCCN(C)CCCNC(=O)CCC[C@H](C)OC2=O`, the result was inactive.
Still for that read-out and setting: next, `COc1cc(O)c2c(c1)/C=C/CC(=O)OCCCC(c1ccccc1)(C(O)c1ccccc1)CCCOC(=O)CCC[C@H](C)OC2=O` (stereo not given in full): “inactive”; `COc1cc(O)c2c(c1)/C=C/CC(=O)OCCCCOC(=O)CCC[C@H](C)OC2=O`: “inactive”; `COc1cc(O)c2c(c1)/C=C/CC(=O)OCCCOCCCOC(=O)CCC[C@H](C)OC2=O`: “inactive”.
The same measure, in the same setting: the result for `COc1cc(O)c2c(c1)/C=C/CC(=O)OCCCCCCCCOC(=O)CCC[C@H](C)OC2=O` reads “inactive”.
Same read-out and setting: next, `COc1cc(O)c2c(c1)/C=C/CC(=O)OC/C=C(\C)CC/C=C(\C)COC(=O)CCC[C@H](C)OC2=O`: “inactive”.

Another test concerns the target T1, Tyrosine-protein kinase Lck.
Target sequence in this assay (P06239 whole entry): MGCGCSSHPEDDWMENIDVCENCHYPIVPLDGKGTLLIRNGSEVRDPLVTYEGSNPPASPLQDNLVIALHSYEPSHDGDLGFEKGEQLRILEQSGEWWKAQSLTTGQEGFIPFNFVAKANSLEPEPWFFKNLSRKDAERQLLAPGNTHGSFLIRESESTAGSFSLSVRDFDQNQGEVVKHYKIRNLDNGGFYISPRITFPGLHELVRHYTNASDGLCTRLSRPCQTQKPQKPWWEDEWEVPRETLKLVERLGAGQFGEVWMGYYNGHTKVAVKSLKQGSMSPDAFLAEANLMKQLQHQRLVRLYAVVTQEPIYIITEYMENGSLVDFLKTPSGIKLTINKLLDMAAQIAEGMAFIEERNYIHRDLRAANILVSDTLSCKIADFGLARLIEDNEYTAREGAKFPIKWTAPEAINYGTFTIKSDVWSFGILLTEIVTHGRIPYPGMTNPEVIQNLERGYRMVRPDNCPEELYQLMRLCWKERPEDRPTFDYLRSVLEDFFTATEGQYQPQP
Take `COc1cc(O)c2c(c1)/C=C/C[C@@H](O)[C@H](O)C(=O)CCC[C@H](C)OC2=O` [DIHYDROXYMETHYLZEARALENONE]: the negative-log IC50 (pIC50) was 6.70.
Take `COc1cc(O)c2c(c1)CCCC(O)[C@H](O)C(=O)/C=C\C[C@H](C)OC2=O` (single isomer, unassigned): the pIC50 was 6.12.

Tested on in a further test: not listed separately
In words: Inhibition of MAPK.
Compound `COc1cc(O)c2c(c1)CCCC(O)[C@H](O)C(=O)/C=C\C[C@H](C)OC2=O` (single isomer, unassigned) gave a negative logarithm of the IC50 (pIC50) of 8.40.

Broadly, the pIC50 is the IC50 on a negative log10 scale, so that one unit is a factor of ten. Low values mean a large IC50, high ones a small IC50.
